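These data come from cells grown in 96-well plates and exposed to compound for 48 hours at five concentrations. GI50 = concentration required for 50% inhibition of growth. The concentration for full growth arrest is given as TGI.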
Experiments:
Assay in all cases: NCI-60 cell line screen, 48 h
[1] = tested on: UO-31 renal
[2] = tested on: KM12 colon
[3] = tested on: SNB-19 CNS
[4] = tested on: K-562 leukemia
[5] = tested on: HOP-62 NSCLC
[6] = tested on: MALME-3M melanoma
[7] = tested on: SN12C renal
[8] = tested on: CAKI-1 renal
[9] = tested on: RXF 393 renal
[10] = tested on: U251 CNS

Compound | TGI [1] [µM] | TGI [2] [µM] | TGI [3] [µM] | TGI [4] [µM] | TGI [5] [µM] | TGI [6] [µM] | TGI [7] [µM] | TGI [8] [µM] | TGI [9] [µM] | TGI [10] [µM] | GI50 [1] [µM] | GI50 [2] [µM] | GI50 [6] [µM] | GI50 [7] [µM] | GI50 [10] [µM] | GI50 [8] [µM] | GI50 [9] [µM] | GI50 [5] [µM] | GI50 [3] [µM] | GI50 [4] [µM]
COC(=O)C(=O)C(C(=O)C(=O)Nc1ccccc1C(C)=O)c1nc2ccc(C(=O)c3ccccc3)cc2[nH]c1=O (stereo unspecified) | > 100 | > 100 | > 100 | > 100 | > 100 | > 100 | > 100 | > 100 | > 100 | – | – | – | – | – | – | – | – | – | – | –
COC(=O)C(=O)C(C#N)c1ccc(CC#N)cc1 (stereo unspecified) | > 100 | > 100 | > 100 | > 100 | – | > 100 | > 100 | > 100 | – | > 100 | – | – | – | – | – | – | – | – | – | –
CCCN1CN(C(C(=O)N[C@@H]2C(=O)N3C(C(=O)O)=C(C)CSC23)c2ccc(O)cc2)CSC1=S (stereo partly specified) | > 100 | > 100 | > 100 | > 100 | > 100 | > 100 | > 100 | > 100 | – | > 100 | – | – | – | – | – | – | – | – | – | –
CCCC(C)C[C@@H](C)CC(C)/C=C(\C)c1oc(=O)c(C)c(O)c1C (stereo partly specified) (tested in a mixture with another compound) | 27 | 41.4 | 28 | – | 36.5 | 9.17 | 29.1 | 28.1 | 26.6 | 27.6 | – | – | – | – | – | – | – | – | – | –
CCCN1CCN(c2ccc3nc(-c4ccc5nc(-c6cc(OC)ccc6OC)[nH]c5c4)[nH]c3c2)CC1 | 29.3 | 3.46 | – | – | – | 40.9 | 32.8 | 30.7 | 3.17 | 3.1 | 14.6 | 1.86 | 20.3 | 16.3 | 1.69 | 15.9 | 1.65 | – | – | –
O=C(O)CC12C3C4C5C3C1C5C42 (stereo unspecified) | > 100 | > 100 | > 100 | > 100 | > 100 | > 100 | > 100 | > 100 | – | > 100 | – | – | – | – | – | – | – | – | – | –
COC1OC(C)C(O)CC1OS(=O)(=O)c1ccc(C)cc1 (stereo unspecified) | > 100 | > 100 | > 100 | > 100 | – | > 100 | > 100 | > 100 | > 100 | > 100 | – | – | – | – | – | – | – | – | – | –
Cc1ccc(NC(=O)CC(=O)n2nc(-c3ccccc3)c(N=Nc3ccccc3Cl)c2-c2ccccc2)cc1 | > 100 | > 100 | > 100 | > 100 | > 100 | > 100 | > 100 | > 100 | – | > 100 | > 100 | > 100 | – | > 100 | – | – | – | – | – | –
CC[O-].CC[O-].O=C1C(c2ccccc2)=C([O-])c2ccccc21.O=C1C(c2ccccc2)=C([O-])c2ccccc21.[Ti+4] | – | > 100 | – | – | > 100 | > 100 | > 100 | > 100 | – | > 100 | – | 62.9 | > 100 | > 100 | > 100 | > 100 | – | > 100 | – | –
Cc1ccc(NC(=O)CCC/C(CC(=O)c2ccc(Br)cc2)=N/NC(=O)CC#N)cc1 | > 100 | > 100 | > 100 | – | > 100 | > 100 | > 100 | – | > 100 | > 100 | – | – | – | – | – | – | – | – | – | –
O=C(Nc1ccc(F)cc1)C(=O)C(C1OC(=O)c2ccccc21)[N+](=O)[O-] (stereo unspecified) | > 100 | > 100 | > 100 | > 100 | > 100 | > 100 | – | > 100 | > 100 | > 100 | – | – | – | – | – | – | – | – | – | –
Cc1ccc(/C=C/C(=O)c2sc(-c3cccnc3)nc2C)cc1 | > 100 | > 100 | – | > 100 | > 100 | > 100 | > 100 | > 100 | > 100 | > 100 | – | – | – | – | – | – | – | – | – | –
O=C([CH-]C(=O)c1ccccc1)c1ccccc1.O=C([CH-]C(=O)c1ccccc1)c1ccccc1.O=C([CH-]C(=O)c1ccccc1)c1ccccc1.[OH3+].[Y+3] | 14.7 | 24 | 56.4 | 17.8 | 22.5 | 47.2 | 26.7 | 26.8 | – | 24.2 | 4.51 | 5.38 | 14 | 4.68 | 2.93 | 5.68 | – | 4.5 | 8.04 | 3.6
O=S(=O)(c1ccc(N=C2NN=C(c3c[nH]c4ccccc34)CS2)cc1)N1CCOCC1 | > 100 | > 100 | > 100 | > 100 | – | > 100 | > 100 | > 100 | – | > 100 | 19.1 | 7.13 | 34.8 | 79.4 | 8.48 | 78.1 | – | – | 45.6 | 2.65
O=CN1N=C(c2ccc(Cl)cc2)CC1c1cccc(Nc2ccnc3cc(Cl)ccc23)c1 (stereo unspecified) | > 100 | 76.5 | > 100 | 10.2 | 16.1 | 7.25 | > 100 | – | 5.87 | 13.6 | 1.7 | 1.22 | 1.27 | 3.99 | 2.47 | – | 1.4 | 1.21 | 4.19 | 0.388
COc1cc2cc(C(=O)Nc3cc(N)c4ccccc4c3CCCl)[nH]c2c(OC)c1OC | 41.2 | 0.667 | > 10.2 | 2.5 | 0.165 | 0.274 | 0.611 | – | 0.0219 | – | 0.0353 | 0.0411 | 0.119 | 0.0548 | – | 0.0193 | 0.00875 | 0.0244 | 0.122 | 0.0466
Cc1cc(C)nc(NS(=O)(=O)c2ccc(Nc3c4ccc(Cl)cc4nc4c(C(=O)Nc5ccc(S(=O)(=O)N=C(N)N)cc5)cccc34)cc2)n1 | > 100 | > 100 | > 100 | > 100 | > 100 | > 100 | > 100 | – | > 100 | > 100 | – | – | – | – | – | – | – | – | – | –
COc1ccc2c(c1)CCc1[nH]c3ccccc3c1CCCC2 | – | > 10 | > 10 | > 10 | > 10 | > 10 | > 10 | > 10 | – | > 10 | – | – | – | – | – | – | – | – | – | –
O=C(C[n+]1ccccc1)N=N/C(C(=O)Nc1c(Cl)c(O)c2ccccc2c1O)=C1/C(=O)Oc2cc(O)ccc2C1=O | 26.3 | > 100 | – | > 100 | 22.4 | – | 15.1 | 18.1 | 21.7 | 45.9 | – | – | – | – | – | – | – | – | – | –

Source: PubChem BioAssay (NCI)
